Measurements taken from patent publication US20160046597A1, “RORC2 INHIBITORS AND METHODS OF USE THEREOF” (PFIZER INC., priority 2013, published 2016).

Target: T1, RORC2 ligand binding domain (6-His-RORC2 LBD) (Homo sapiens, UniProt P51449)
T1 construct: made in house; host or cells: E. coli
T1 sequence (P51449 269-508 limits assumed): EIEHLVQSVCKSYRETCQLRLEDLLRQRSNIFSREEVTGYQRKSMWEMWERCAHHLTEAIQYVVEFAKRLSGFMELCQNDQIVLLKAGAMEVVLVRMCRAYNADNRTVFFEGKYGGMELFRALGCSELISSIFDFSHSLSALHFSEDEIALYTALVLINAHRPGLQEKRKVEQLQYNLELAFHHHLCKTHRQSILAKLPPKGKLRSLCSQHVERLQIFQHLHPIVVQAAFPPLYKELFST
Assay: Co-activator recruitment by TR-FRET (RORC2 FRET)
Format: biochemical
Details: 6.3 nM RORC2 LBD, 200 nM SRC1-2 coactivator peptide, 3 hours room temperature
Text: The activity of compound of the invention can be determined by a co-activator recruitment by TR-FRET (time-resolved fluorescence resonance energy transfer) assay. […] Due to the long lasting fluorescence emission of Europium, the non-specific, short-lived fluorescence is time-resolved (TR) from the fluorescence of interest. Inhibitors of the interaction of receptor and coactivator peptide are detected by a decrease in TR-FRET signal.
Specifically, in one embodiment the aforementioned assay was performed as outlined below. The assay was carried out in black polystyrene, 384-well plates in a total assay volume of 50.5 μL. The assay buffer contained 50 mM TRIS-HCL pH 7.5, 1 mM NaCl, 2 mM MgCl2, 0.5 mg/mL bovine serum albumin, and 5 mM dithiothreitol.

IC50 [nM]	SMILES
19.8	Cn1cc(C2CCN(C(=O)[C@H]3CCC[C@H]3O)CC2)c2cc(NC(=O)c3cc(C#N)ccn3)ccc21 (relative stereo) [Example 13, 4-cyano-N-[3-(1-{[(1S*,2R*)-2-hydroxycyclopentyl]carbonyl}piperidin-4-yl)-1-methyl-1 2-carboxamide]
17.9	CC(C)CC(=O)N1CCC(c2cn(C)c3ccc(NC(=O)c4cccc(C#N)c4)cc23)CC1 [Example 2, 3-cyano-N-(1-methyl-3-(1-(3-methylbutanoyl)piperidin-4-yl)-1H-indol-5-yl)benzamide]
387	CC[C@H](C)[C@H](O)C(=O)N1CCC(c2cn(C)c3ccc(NC(=O)c4cccc(C#N)c4)cc23)CC1 [Example 3, 3-cyano-N-(3-(1-((2S,3S)-2-hydroxy-3-methylpentanoyl)piperidin-4-yl)-1-methyl-1H-indol-5-yl)benzamide]
590	CC(C)C[C@H](O)C(=O)N1CCC(c2cn(C)c3ccc(NC(=O)c4cccc(C#N)c4)cc23)CC1 [Example 4, 3-cyano-N-(3-(1-((2S)-2-hydroxy-4-methylpentanoyl)piperidin-4-yl)-1-methyl-1H-indol-5-yl)benzamide]
106	Cn1cc(C2CCN(C(=O)[C@H]3CC[C@@H](O)CC3)CC2)c2cc(NC(=O)c3cccc(C#N)c3)ccc21 [Example 5, 3-cyano-N-(3-{1-[(cis-4-hydroxycyclohexyl)carbonyl]piperidin-4-yl}-1-methyl-1H-indol-5-yl)benzamide]
7.3	Cn1cc(C2CCN(C(=O)C3CCC(F)(F)C3)CC2)c2cc(NC(=O)c3cc(C#N)ccn3)ccc21 (stereo not drawn) [Example 8, 4-cyano-N-(3-{1-[(3,3-difluorocyclopentyl)carbonyl]piperidin-4-yl}-1-methyl-1H-indol-5-yl)pyridine-2-carboxamide]
8.7	Cn1cc(C2CCN(C(=O)C3CC(F)(F)C3)CC2)c2cc(NC(=O)c3cc(C#N)ccn3)ccc21 [Example 9, 4-cyano-N-(3-{1-[(3,3-difluorocyclobutyl)carbonyl]piperidin-4-yl}-1-methyl-1H-indol-5-yl)pyridine-2-carboxamide]
42.9	Cc1cc(C(=O)N2CCC(c3cn(C)c4ccc(NC(=O)c5cc(C#N)ccn5)cc34)CC2)no1 [Example 10, 4-cyano-N-(1-methyl-3-{1-[(5-methylisoxazol-3-yl)carbonyl]piperidin-4-yl}-1H-indol-5-yl)pyridine-2-carboxamide]
34.6	Cn1nccc1C(=O)N1CCC(c2cn(C)c3ccc(NC(=O)c4cc(C#N)ccn4)cc23)CC1 [Example 11, 4-cyano-N-(1-methyl-3-{1-[(1-methyl-1H-pyrazol-5-yl)carbonyl]piperidin-4-yl}-1H-indol-5-yl)pyridine-2-carboxamide]
24.3	Cn1cc(C2CCN(C(=O)CC3CCOCC3)CC2)c2cc(NC(=O)c3cc(C#N)ccn3)ccc21 [Example 12, 4-cyano-N-{1-methyl-3-[1-(tetrahydro-2H-pyran-4-ylacetyl)piperidin-4-yl]-1H-indol-5-yl}pyridine-2-carboxamide]
15.9	Cn1cc(C2CCN(C(=O)C3CCCOC3)CC2)c2cc(NC(=O)c3cc(C#N)ccn3)ccc21 (stereo not drawn) [Example 15, 4-cyano-N-{1-methyl-3-[1-(tetrahydro-2H-pyran-3-ylcarbonyl)piperidin-4-yl]-1H-indol-5-yl}pyridine-2-carboxamide]
132	CNc1ncccc1C(=O)N1CCC(c2cn(C)c3ccc(NC(=O)c4cc(C#N)ccn4)cc23)CC1 [Example 16, 4-cyano-N-[1-methyl-3-(1-{[2-(methylamino)pyridin-3-yl]carbonyl}piperidin-4-yl)-1H-indol-5-yl]pyridine-2-carboxamide]
26.1	Cn1cc(C2CCN(C(=O)c3cscn3)CC2)c2cc(NC(=O)c3cc(C#N)ccn3)ccc21 [Example 18, 4-cyano-N-{1-methyl-3-[1-(1,3-thiazol-4-ylcarbonyl)piperidin-4-yl]-1H-indol-5-yl}pyridine-2-carboxamide]
40.6	Cn1cc(C2CCN(C(=O)C3CCOCC3)CC2)c2cc(NC(=O)c3cc(C#N)ccn3)ccc21 [Example 19, 4-cyano-N-{1-methyl-3-[1-(tetrahydro-2H-pyran-4-ylcarbonyl)piperidin-4-yl]-1H-indol-5-yl}pyridine-2-carboxamide]
246	Cn1cc(C2CCN(C(=O)c3ccncn3)CC2)c2cc(NC(=O)c3cc(C#N)ccn3)ccc21 [Example 20, 4-cyano-N-{1-methyl-3-[1-(pyrimidin-4-ylcarbonyl)piperidin-4-yl]-1H-indol-5-yl}pyridine-2-carboxamide]
1440	Cn1cc(C2CCN(C(=O)c3cccc(O)n3)CC2)c2cc(NC(=O)c3cc(C#N)ccn3)ccc21 [Example 21, 4-cyano-N-(3-{1-[(6-hydroxypyridin-2-yl)carbonyl]piperidin-4-yl}-1-methyl-1H-indol-5-yl)pyridine-2-carboxamide]
384	Cn1cc(C2CCN(C(=O)C(C)(C)CO)CC2)c2cc(NC(=O)c3cc(C#N)ccn3)ccc21 [Example 22, 4-cyano-N-{3-[1-(3-hydroxy-2,2-dimethylpropanoyl)piperidin-4-yl]-1-methyl-1H-indol-5-yl}pyridine-2-carboxamide]
334	Cn1cc(C2CCN(C(=O)C(O)C(F)(F)F)CC2)c2cc(NC(=O)c3cc(C#N)ccn3)ccc21 (stereo not drawn) [Example 23, 4-cyano-N-{1-methyl-3-[1-(3,3,3-trifluoro-2-hydroxypropanoyl)piperidin-4-yl]-1H-indol-5-yl}pyridine-2-carboxamide]
246	Cn1cc(C2CCN(C(=O)c3ncccn3)CC2)c2cc(NC(=O)c3cc(C#N)ccn3)ccc21 [Example 24, 4-cyano-N-{1-methyl-3-[1-(pyrimidin-2-ylcarbonyl)piperidin-4-yl]-1H-indol-5-yl}pyridine-2-carboxamide]
31.6	Cn1cc(C2CCN(C(=O)C3CCCO3)CC2)c2cc(NC(=O)c3cc(C#N)ccn3)ccc21 (stereo not drawn) [Example 25, 4-cyano-N-{1-methyl-3-[1-(tetrahydrofuran-2-ylcarbonyl)piperidin-4-yl]-1H-indol-5-yl}pyridine-2-carboxamide]
87	Cn1cc(C2CCN(C(=O)c3cnccn3)CC2)c2cc(NC(=O)c3cc(C#N)ccn3)ccc21 [Example 26, 4-cyano-N-{1-methyl-3-[1-(pyrazin-2-ylcarbonyl)piperidin-4-yl]-1H-indol-5-yl}pyridine-2-carboxamide]
1420	Cn1cc(C2CCN(C(=O)[C@H]3CC[C@H](O)CC3)CC2)c2cc(NC(=O)c3cc(C#N)ccn3)ccc21 [Example 27, 4-cyano-N-(3-{1-[(trans-4-hydroxycyclohexyl)carbonyl]piperidin-4-yl}-1-methyl-1H-indol-5-yl)pyridine-2-carboxamide]
88.1	CC(C)C(O)C(=O)N1CCC(c2cn(C)c3ccc(NC(=O)c4cc(C#N)ccn4)cc23)CC1 (stereo not drawn) [Example 28, 4-cyano-N-{3-[1-(2-hydroxy-3-methylbutanoyl)piperidin-4-yl]-1-methyl-1H-indol-5-yl}pyridine-2-carboxamide]
56.2	Cn1cc(C2CCN(C(=O)[C@H]3CC[C@@H](O)CC3)CC2)c2cc(NC(=O)c3cc(C#N)ccn3)ccc21 [Example 29, 4-cyano-N-(3-{1-[(cis-4-hydroxycyclohexyl)carbonyl]piperidin-4-yl}-1-methyl-1H-indol-5-yl)pyridine-2-carboxamide]
